Assay results reported in patent US20240002467A1, “COMPOSITIONS AND METHODS OF INHIBITING THE BINDING OF PLASMA IGG AUTOANTIBODIES TO SEROTONIN 2A RECEPTOR” (UNITED STATES GOVERNMENT AS REPRESENTED BY THE DEPARTMENT …, priority 2020, published 2024).
Several values for one entry are separate records, joined by “and”; a condition that tells them apart may be missing. Equal values may be shown once. Entries after “also recorded” stand apart in the source; their conditions may differ. Ends that are not written are not given here.

Assays:
[1] = once-daily valsartan 160 mg; cited from earlier work
[2] = tested on: Zucker diabetic fatty rats; conditions: ZDF rats treated 6 months, cited from earlier work
[3] = cited from earlier work
[4] = tested on: Zucker diabetic fatty rats; test: Observation of side effects / tolerability in ZDF rats
[5] = tested on: Zucker diabetic fatty rats; test: Plasma hepatic transaminases (AST, ALT) after chronic IP treatment of ZDF rats; format: in vivo, rat; conditions: 2 mg/kg IP alternate daily weeks 10-16, blood at week 16, vs saline
Experimental: Two groups of Zucker diabetic fatty rats (N=4 each) were treated with alternate daily intraperitoneal dose (IP) of either a composition comprising decoy peptide 2 (SEQ ID NO: 2) (2 mg/kg) or an equal volume of sterile saline (vehicle) for […] (between weeks 10-16). Blood was obtained at week 16 for determination of plasma hepatic transaminases (AST, ALT) and plasma triglycerides.

[6] = tested on: Zucker diabetic fatty rats; conditions: rat, in vivo
[7] = tested on: male Zucker diabetic fatty rats; test: Tail cuff blood pressure in male ZDF rats after IP peptide; format: in vivo, rat; design: systolic blood pressure within 15 minutes of administration: unit not given here; conditions: for mean systolic blood pressure, baseline: 8.5-week-old male ZDF rats before single IP: pegylated 1 mg/kg (n=3), scrambled 2 mg/kg (n=4); for Estimate: difference in mean diastolic blood pressure vs scrambled decoy peptide 2 (time series analysis) / Estimate: difference in mean systolic blood pressure vs scrambled decoy peptide 2 (time series analysis): pegylated 1 mg/kg IP vs scrambled 2 mg/kg IP (reference = 0)
Experimental: Animals. Male ZDF and lean (+/?) Zucker rats were obtained from Charles River Laboratories (Kingston, NY) at approximately 6-7 weeks of age. The rats were single housed upon arrival, without enrichment. Rats were acclimatized for two weeks prior to experimental procedures. Rats were provided ad libitum access to food and water and maintained in a 12 h light/dark cycle with lights on at 0630. The procedures occurred during the light phase of the cycle. Blood pressure testing (following acute or chronic administration of the decoy peptides) was conducted in three separate cohorts of animals.
Cohort 1: Three 25-week-old male ZDF and three, age-matched, male Zucker lean rats (ZLR) treated with IP decoy peptide 2 (ZDF) vs saline (vehicle) (ZLR).
Cohort 2: Eleven-week old male ZDF (n=5) and Zucker lean rats (n=4) treated with IP decoy peptide 2.
Cohort 3: Twelve 8.5-week old male Zucker diabetic fatty rats were randomly assigned to one of three treatment groups (n=4/group). The rats underwent baseline blood pressure determinations using tail-cuff plethysmography technique. Next, the animals who expressed baseline hypertension, i.e., blood pressure >135/85, received either a 1 mg/kg intraperitoneal injection of pegylated decoy peptide 2 (n=3); a 2 mg/kg intraperitoneal dose of a scrambled decoy peptide 2 (n=4); or vehicle (i.e., sterile saline) (N=4). Blood pressure was determined at 15 minutes, 45 minutes, 4 hours, 8 hours, 24 hours, 30 and 48 hours following single IP injection. One week later, the same two groups of ZDF rats received either 0.75 mg/kg IP pegylated decoy peptide 2, 2 mg/kg scrambled decoy peptide 2, or sterile saline; and blood pressure was determined at similar timepoints. Two weeks later, two groups of 12-week-old ZDF rats (n=6/group) including those that had previously received acute peglyated decoy peptide 2 or scrambled decoy peptide 2 were treated on an alternative daily schedule with IP, free decoy peptide 2 (2 mg/kg) vs IP scrambled decoy peptide 2 (2 mg/kg) continuously for 13 weeks until sacrifice at 25 weeks of age. Body weight was determined immediately before sacrifice and after perfusion; and hearts were excised and weighed for determination of the heart-to-(perfused) body weight ratio.
(§1) Blood pressure monitoring. Tail cuff blood pressure measurement was performed using an automated CODA noninvasive blood pressure system (Kent Scientific, Torrington, CT). Rats were placed on an insulated warming platform in a well-heated room to ensure proper body temperature. Cuff monitors were provided in different sizes to accommodate rats of different ages and having different body weights. After the animal was positioned in the clear plastic restraint holder, the appropriate-sized cuff was slid over the rat's tail.
Statistical Analysis. Comparisons were made using Student's unpaired t-test (Tables 3-6, 9 and FIG. 18) or time series analysis (Tables 7, 8, FIG. 16).
as §1, with “CT.).” for “CT).”
Experiment 1: Four 12-week-old male ZDF rats were randomly assigned to receive either a single IP injection of a scrambled sequence (SEQ ID NO: 7) of Peptide ID #2 (SEQ ID NO: 2) at 1 mg/kg concentration or a 1 mg/kg concentration of myristolated Peptide ID #2 (SEQ ID NO: 9). Blood pressure was determined using tail cuff plethysmography (Kent Scientific) at 1, 4, 6, 48 and 72 hours post-injection.
Experiment 2: Six 12-week-old male ZDF rats were assigned to each of three treatment groups (N=2/group). […]

[8] = 8.5-week-old male ZDF rats, single IP: pegylated 1 mg/kg, scrambled 2 mg/kg
[9] = ZDF rats, before pegylated 0.75 mg/kg IP
[10] = ZDF rats, pegylated 0.75 mg/kg single IP
[11] = ZDF rats, listed as Peg decoy peptide 2
[12] = ZDF rats, pegylated 1 mg/kg single IP

CCCCC(=O)N(Cc1ccc(-c2ccccc2-c2nnn[nH]2)cc1)[C@H](C(=O)O)C(C)C [valsartan]
systolic blood pressure-lowering effect after 24 hours, in words [1]: no significant systolic blood pressure-lowering effect

CN(C)C(=N)N=C(N)N [metformin]
serum ALT, times higher than upper limit of normal ([2]; both groups): more than 3 times | serum ALT ([2]; metformin or vehicle (both groups)): ~142 IU/L

CC/C=C\C/C=C\C/C=C\C/C=C\C/C=C\CCCC(=O)O [EPA]
HR for cardiovascular events ([3]; REDUCE-IT): 0.75 | reduction in occurrences of cardiovascular death, nonfatal heart attack, nonfatal stroke, coronary stenting or bypass or unstable angina ([3]; REDUCE-IT): 25% | reduction of plasma triglyceride level ([3]; humans, chronic treatment, REDUCE-IT after 1 year): 18% and 18.3%

CC(C)C[C@H](NC(=O)[C@H](CS)NC(=O)[C@H](CC(=O)O)NC(=O)[C@H](CC(N)=O)NC(=O)[C@H](CO)NC(=O)[C@H](C)NC(=O)[C@@H](N)CC(C)C)C(=O)N[C@@H](CC(=O)O)C(=O)O [scrambled decoy peptide 2, reference compound]
untoward physical or behavioral effect ([4]; ten ZDF rats (Expt 1 and 2), up to 14-21 days after single IP): None of the ten rats tested (N=4 in Expt 1; N=6 in Expt 2) experienced any untoward physical or behavioral effect

SCLLADDN [decoy peptide 2]
side effects of acute blood pressure-lowering ([4]; 11-week-old male ZDF rats (N=5), 2 mg/kg IP): none of the five male ZDF rats experienced any untoward side effects including hypotension or acute sedation | acute side effects after first dose ([4]; 25-week-old male ZDF rats, 2 mg/kg IP, two of three rats, resolved spontaneously): sedation and borderline hypotension | side effects after repeat drug exposure ([4]; 25-week-old male ZDF rats, up to 18 days after repeat 2 mg/kg IP): no untoward acute or long-term side effects | long-term side effects after chronic administration ([4]; ZDF rats, chronic (10 weeks) administration): No untoward long-term side effects were observed | safety and tolerability of alternate daily dosing ([4]; obese Zucker rats, 2 mg/kg alternate daily): safe, well-tolerated | mean plasma AST [5]: did not differ significantly; also recorded: not associated with significant increase in AST

K(DBCO-DSPE-PEG2K)-SCLLADDN (not fully specified; Lys-DBCO-DSPE-PEG2000 conjugate; MOD_RES (1)..(1) Lys(Azide)) [pegylated decoy peptide 2]
tolerability after the initial dose [6]: no sedation or hypotension was observed after the initial dose | mean systolic blood pressure, baseline [7]: 155 mm Hg | mean systolic blood pressure, baseline ([7]; listed as Pegylated decoy peptide 2): 155+/−12 mm Hg | mean diastolic blood pressure, baseline ([7]; 8.5-week-old male ZDF rats before single IP: pegylated 1 mg/kg, scrambled 2 mg/kg): 105+/−8 mm Hg | mean diastolic blood pressure 45 minutes post-injection [7, 8]: 92+/−11 mm Hg | mean systolic blood pressure 45 minutes post-injection [7, 8]: 122+/−5 mm Hg | diastolic blood pressure, baseline [7, 9]: 108 mm Hg | systolic blood pressure, baseline [7, 9]: 154 mm Hg | diastolic blood pressure 30 hours post injection [7, 10]: 80 mm Hg | diastolic blood pressure at 45 minutes post-injection [7, 10]: 80 mm Hg | diastolic blood pressure lowering at 45 minutes post-injection [7, 10]: 19% | reduction of systolic blood pressure at 45 minutes post-injection [7, 10]: 17% | reduction of systolic blood pressure between 24-30 hours after injection [7, 10]: 14-19% | systolic blood pressure at 45 minutes post-injection [7, 10]: 128 mm Hg | time at which diastolic blood pressure recovered to baseline [7, 10]: 48 h | time at which systolic blood pressure recovered to baseline [7, 10]: 48 h | Estimate: difference in mean diastolic blood pressure vs scrambled decoy peptide 2 (time series analysis) ([7]; ZDF rats): −9.8 mm Hg | Estimate: difference in mean systolic blood pressure vs scrambled decoy peptide 2 (time series analysis) ([7]; ZDF rats): −8.9 mm Hg | Estimate: difference in mean diastolic blood pressure vs scrambled decoy peptide 2 (time series analysis) [7, 11]: −9.7771 mm Hg | Estimate: difference in mean systolic blood pressure vs scrambled decoy peptide 2 (time series analysis) [7, 11]: −8.9162 mm Hg | change of systolic blood pressure within 15 minutes vs baseline [7, 12]: −28% | diastolic blood pressure lower than baseline at 30 hours post injection [7, 12]: 34% | maximum reduction of diastolic blood pressure, 8 hours after injection [7, 12]: 36% | reduction of diastolic blood pressure at 4 hours post-injection [7, 12]: 20% | systolic blood pressure within 15 minutes of administration [7, 12]: 111 | time after which systolic blood pressure had returned to baseline [7, 12]: 48 h | dose dependence of systolic and diastolic blood pressure lowering, in words ([7]; ZDF rats, single IP 0.75 to 1 mg/kg): significant, dose-dependent systolic and diastolic blood pressure lowering effects; also recorded: significant, dose-dependent, long-lasting systolic and diastolic blood pressure-lowering effect | effect on diastolic blood pressure, in words ([7]; ZDF rats, single IP: pegylated 1 mg/kg, scrambled 2 mg/kg): trend of significant acute decline in diastolic blood pressure | sustained reductions in systolic and diastolic blood pressure 30 hours after administration ([7]; male ZDF rat, pegylated 1 mg/kg): 25-26%
